Experimental data reported in patent EP4050002A1, “ANTI-PROLIFERATIVE AGENTS” (First Health Pharmaceuticals B.V., priority 2021, dated 2022).
Read-outs that look alike come from different tables or passages of the source.

Experiment: Pharmacokinetic studies, single administration
Type: in vivo, male Swiss albino mice
Details: for MRT last: read-out: MRT0-last
Protocol: The pharmacokinetic study was performed in male Swiss albino mice from Hylasco Biotechnology Pvt. Ltd. (A Charles River technology Licensee). The tissue distribution study was performed in male Swiss albino mice and in male FOXN1^nu/nu nude mice (Envigo spa). The efficacy study was performed in male FOXN1^nu/nu nude mice.
Single intravenous administration studies were done as follows: • 1. Compound 5 • dose: 1 mg/kg • dose concentration: 0.2 mg/ml in 10% DMSO and 10% Solutol in WFI (90%). • volume: 5 ml/kg • blood withdrawal time points: 0.083, 0.25, 0.5, 1, 2, 4, 8, 24 hours post administration • 2. Compound 3 • […] • dose concentration: 0.2 mg/ml in 10% DMSO and 10% Solutol in WFI (90%). • volume: 5 ml/kg • blood withdrawal time points: 0.083, 0.25, 0.5, 1, 2, 4, 8, 24 hours post administration
Single intraperitoneal administration studies were done as follows: • 1. Compound 5 • dose 1: 45 mg/kg • dose concentration: […] in 10% DMSO, 5% TWEEN 80 and WFI (85%) • volume: 5 ml/kg • blood withdrawal time points: 0.25, 0.5, 1, 2, 4, 6, 8, 24 hours post administration • brain, liver and lungs collected at 4, 8 and 24 hours • 2. Compound 5 • dose 2: 10 mg/kg • dose concentration: 2 mg/ml in 10% DMSO, 10% Solutol and WFI (90%). • volume: 5 ml/kg • blood withdrawal time points: 0.25, 0.5, 1, 2, 4, 6, 8, 24 hours post administration
Single oral administration studies were done as follows: • 1. Compound 5 • dose: 45 mg/kg • dose concentration: 4.5 mg/ml in Labrasol (30%), Capmul PG 8 (30%), Cremophor EL (10%) and PEG (30%) • volume given by oral gavage: 10 ml/Kg • blood withdrawal time points: 0.08, 0.25, 0.5, 1, 2, 4, 6, 8, 24 hours post administration
Single intra tracheal administration studies were done as follows: • 1. Compound 5 • dose: 0.08 mg/kg • dose concentration: 0.04 mg/ml in DMSO (1%) and WFI (99%) • volume given by intra tracheal route: 2 ml/Kg • blood withdrawal time points: 0.03, 0.08, 0.17, 0.25, 0.75, 1.5, 2, 4 hours post administration
Animals were observed up to 24 hours after dose administration for behavioral or physical alterations. For blood withdrawal, mice were anesthetized using gaseous anesthesia and 0.2 to 0.3 ml of blood samples were collected in Li-Heparin containing tubes at the time points above indicated, stored on ice, centrifuged within 15 minutes to separate plasma at 1540 ref (5000 rpm) at 4°C for 10 minutes; plasma was separated and transferred to new tubes.
Selected organs were collected at 4, 8 and 24 hours for drug distribution studies: mice were anesthetized and intra-cardiac whole body perfusion was performed using chilled saline. Separated tissues were immediately washed, dried, weighed and frozen at -80±10°C until homogenization. The levels of compound in the tissues and in plasma were quantified by LC-MS/MS, using as instrument Q-TRAP 500, with a column Phenomenex, KINETEX 5µ EVO C18 50 mm X 4.5 mm (Phenomenex). The mobile phase employed was composed as follows: aqueous reservoir, 10 mM Ammonium Acetate with 0.1% Formic acid in MilliQ water; organic reservoir, Acetonitrile:Methanol (50:50, v/v); flow rate 1 ml/min; injection volume 10µl; rinsing solution, Acetonitrile:Methanol:Water (20:60:20, v/v).
Calibration Curve & Quality Control samples preparation: 0.5 µl of calibration curve standards were diluted 25X with blank matrix (i.e. Acetonitrile:Methanol (1:1, v/v)) and precipitated with 200 µl of acetonitrile containing internal standard at 200 ng/ml concentration, then vortexed for 5 min at 850 rpm, centrifuged at 4000 rpm for 5 min at 4°C, from this 110 µl of supernatant was separated and diluted with 130 µl of methanol:water, (1:1 v/v) .
Telmisartan (200 ng/ml) was used as internal standard. Telmisartan was spiked in 100% acetonitrile to a final concentration of 200 ng/ml. […]

[1] = I.P. 1, 45 mg/kg, TWEEN-based vehicle
[2] = I.P. 2, 10 mg/kg, Solutol-based vehicle
[3] = mouse, in vivo, iv, I.V., 1 mg/kg
[4] = mouse, plasma, ip, I.P. 1, 45 mg/kg, TWEEN-based vehicle
[5] = mouse, plasma, ip, I.P. 2, 10 mg/kg, Solutol-based vehicle
[6] = mouse, plasma, iv, I.V., 1 mg/kg
[7] = mouse, plasma, po, P.O., 45 mg/kg
[8] = mouse, plasma, I.T., 0.08 mg/kg

## CCCCc1cn(-c2ccc(-c3nnc(-c4ccccc4C(F)(F)F)o3)cc2)nn1 [Compound 5]
[1]
  AUCExtra: 14.86%
  F: 136%
[2]
  AUCExtra: 5.02%
  F: 135%
I.T., 0.08 mg/kg
  AUCExtra: 2.92%
I.V., 1 mg/kg
  AUCExtra: 3.98%
P.O., 45 mg/kg
  AUCExtra: 16.91%
  F: 95%
mouse, in vivo, ip, intraperitoneal route, read-out: absolute bioavailability (F)
  bioavailability: > 100%
[3]
  Vd: 8.2 L/kg
  clearance: 2.4 L/h/kg
[4]
  AUC(0-inf): 25.6 µg·h/mL
  AUC(0-t): 21.8 µg·h/mL
  Cmax: 3.7 µg/mL
  Tmax: 2 h
  MRT last: 7.46 h
[5]
  AUC(0-inf): 5.63 µg·h/mL
  AUC(0-t): 5.35 µg·h/mL
  Cmax: 0.692 µg/mL
  Tmax: 2 h
  MRT last: 6.49 h
[6]
  AUC(0-inf): 0.417 µg·h/mL
  AUC(0-t): 0.4 µg·h/mL
  C0: 0.879 µg/mL
  half-life: 2.37 h
  MRT last: 1.09 h
[7]
  AUC(0-inf): 17.8 µg·h/mL
  AUC(0-t): 14.8 µg·h/mL
  Cmax: 1.35 µg/mL
  Tmax: 4 h
  MRT last: 9.05 h
[8]
  AUC(0-inf): 0.815 µg·h/mL
  AUC(0-t): 0.791 µg·h/mL
  Cmax: 1.95 µg/mL
  Tmax: 0.03 h
  MRT last: 0.72 h
